The values that follow come from patent publication US20260049084A1, “ENPP1 MODULATORS AND PRODUCTS AND USES THEREOF” (Gossamer Bio Services, Inc., priority 2022, published 2026).

Some results are limits rather than exact numbers.

For orientation: IC50 means the concentration that gives 50% inhibition.

For test [1], the target named is Recombinant human ENPP3 protein (Homo sapiens (Human), UniProt O14638). In words: ENPP3 cGAMP Biochemical Assay. To be noted: 70.5 nM ENPP3, 120 μM 2′3′-cGAMP substrate, TR-FRET. Here is the method:
ENPP3 cGAMP Biochemical Assay
Compounds were added to 384 well Proxiplate (PerkinElmer, Waltham MA) at 100 nl/well from DMSO stocks using Echo (Labcyte, San Jose CA). Recombinant human ENPP3 protein (Acro Biosystems, Newwark DE) was prepared in assay buffer (50 mM Tris pH7.5, 1 mM TCEP pH7.0, 2 mM MgCl2, 2 mM CaCl2), 2 mM ZnCl2 and 0.005% Tween20) and added at 2 μl/well. The plate was sealed, centrifuged at 1000 rpm for 1 minute and incubated at room temperature for 30 minutes before 2 μl substrate 2′3′-cGAMP (R&D Systems, Minneapolis MN) in assay buffer was added to each well to a final concentration of 70.5 nM ENPP3 and 120 μM 2′3′-cGAMP. The plate was sealed and centrifuged at 1000 rpm for 1 minute again. After incubation at 25° C. for 60 minutes, Terbium labelled AMP/GMP antibody and AMP/GMP HiLyte647 Tracer (BellBrook Labs, Fitchburg WI) in detection buffer (50 mM Tris pH7.5, 20 mM EDTA and 0.1% Prionex) were added to the reaction mixture to a final concentration of 475 nM and 3 nM respectively. The assay plate was incubated at room temperature for 120 minutes. TR-FRET signal was detected using Envision (PerkinElmer, Waltham MA).
On the technique in general: Time-resolved FRET reads energy transfer from a long-lived donor to a nearby acceptor.

Test [2] deals with Recombinant human ENPP1 protein (Homo sapiens (Human), UniProt P22413). In words: ENPP1 cGAMP Biochemical Assay. To be noted: 0.5 nM ENPP1, 1000 nM 2′3′-cGAMP substrate, TR-FRET. Here is the method: ENPP1 cGAMP Biochemical Assay
Compounds were added to 384 well Proxiplate (PerkinElmer, Waltham MA) at 100 nl/well from DMSO stocks using Echo (Labcyte, San Jose CA). Recombinant human ENPP1 protein (R&D Systems, Minneapolis MN) was prepared in assay buffer (50 mM Tris pH7.5, 1 mM TCEP pH7.0, 2 mM MgCl2 and 0.005% Tween20) and added at 10 μl/well. The plate was sealed, centrifuged at 1000 rpm for 1 minute and incubated at room temperature for 30 minutes before 5 μl substrate 2′3′-cGAMP (R&D Systems, Minneapolis MN) in assay buffer was added to each well to a final concentration of 0.5 nM ENPP1 and 1000 nM 2′3′-cGAMP. The plate was sealed and centrifuged at 1000 rpm for 1 minute again. After incubation at 25° C. for 60 minutes, Terbium labelled AMP/GMP antibody and AMP/GMP HiLyte647 Tracer (BellBrook Labs, Fitchburg WI) in detection buffer (50 mM Tris pH7.5, 20 mM EDTA and 0.1% Prionex) were added to the reaction mixture to a final concentration of 2 nM (5 μl/well). The assay plate was incubated at room temperature for 120 minutes. TR-FRET signal was detected using Envision (PerkinElmer, Waltham MA).

Recombinant human ENPP3 protein, sequence (O14638 whole entry): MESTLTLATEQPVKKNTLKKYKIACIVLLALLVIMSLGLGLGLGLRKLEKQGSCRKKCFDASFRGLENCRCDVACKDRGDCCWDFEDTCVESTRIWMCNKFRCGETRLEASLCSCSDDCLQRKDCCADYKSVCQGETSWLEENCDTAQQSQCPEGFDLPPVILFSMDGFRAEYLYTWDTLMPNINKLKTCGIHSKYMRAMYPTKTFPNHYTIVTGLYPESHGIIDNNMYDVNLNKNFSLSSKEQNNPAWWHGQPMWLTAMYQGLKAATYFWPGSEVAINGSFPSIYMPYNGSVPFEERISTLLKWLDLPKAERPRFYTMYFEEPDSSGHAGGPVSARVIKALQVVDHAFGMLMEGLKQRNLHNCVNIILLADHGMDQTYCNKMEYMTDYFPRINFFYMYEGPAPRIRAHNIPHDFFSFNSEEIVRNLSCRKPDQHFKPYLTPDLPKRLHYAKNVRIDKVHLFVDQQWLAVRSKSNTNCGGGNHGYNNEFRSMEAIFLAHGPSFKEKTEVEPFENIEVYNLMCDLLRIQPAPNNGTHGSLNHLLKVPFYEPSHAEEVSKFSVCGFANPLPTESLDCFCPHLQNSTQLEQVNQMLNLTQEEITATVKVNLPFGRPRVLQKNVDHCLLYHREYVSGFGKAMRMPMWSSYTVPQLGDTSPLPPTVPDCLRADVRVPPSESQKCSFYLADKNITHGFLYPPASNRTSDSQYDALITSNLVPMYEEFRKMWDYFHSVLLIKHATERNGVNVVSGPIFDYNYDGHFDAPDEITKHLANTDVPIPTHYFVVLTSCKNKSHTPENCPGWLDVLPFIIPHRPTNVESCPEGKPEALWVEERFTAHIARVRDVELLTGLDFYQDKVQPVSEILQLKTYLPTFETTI
Recombinant human ENPP1 protein, sequence (P22413 whole entry): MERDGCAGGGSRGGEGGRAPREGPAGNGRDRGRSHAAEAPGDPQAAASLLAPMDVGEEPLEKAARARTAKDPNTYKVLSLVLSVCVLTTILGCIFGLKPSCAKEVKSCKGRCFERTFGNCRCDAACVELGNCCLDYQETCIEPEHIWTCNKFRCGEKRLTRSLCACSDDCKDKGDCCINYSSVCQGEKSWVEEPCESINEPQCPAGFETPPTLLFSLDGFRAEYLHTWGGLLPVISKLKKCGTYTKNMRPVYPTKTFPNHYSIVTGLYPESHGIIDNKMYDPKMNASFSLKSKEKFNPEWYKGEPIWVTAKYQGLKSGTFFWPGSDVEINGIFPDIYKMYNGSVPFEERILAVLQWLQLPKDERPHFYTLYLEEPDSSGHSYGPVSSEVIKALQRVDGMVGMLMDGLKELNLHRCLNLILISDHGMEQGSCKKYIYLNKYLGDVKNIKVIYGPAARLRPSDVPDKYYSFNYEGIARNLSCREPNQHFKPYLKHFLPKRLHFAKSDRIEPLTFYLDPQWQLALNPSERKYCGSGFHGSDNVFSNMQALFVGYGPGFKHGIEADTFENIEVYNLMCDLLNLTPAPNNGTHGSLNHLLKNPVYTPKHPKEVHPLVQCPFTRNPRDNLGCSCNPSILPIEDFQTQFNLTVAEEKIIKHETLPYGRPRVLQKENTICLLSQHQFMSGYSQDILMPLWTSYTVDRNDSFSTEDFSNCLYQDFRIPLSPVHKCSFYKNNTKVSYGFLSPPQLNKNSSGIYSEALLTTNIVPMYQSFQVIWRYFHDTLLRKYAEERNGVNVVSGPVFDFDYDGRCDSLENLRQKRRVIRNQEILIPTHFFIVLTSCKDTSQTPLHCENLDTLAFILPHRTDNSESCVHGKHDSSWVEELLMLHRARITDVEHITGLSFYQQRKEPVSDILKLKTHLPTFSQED

Take `C#CCn1nc(Cl)c2c(N(C)Cc3ccc(S(C)(=N)=O)cc3)ccnc21` (stereo not drawn) [Compound 9A, (4-(((3-chloro-1-(prop-2-yn-1-yl)-1H-pyrazolo [3,4-b]pyridin-4-yl)(methyl)amino)methyl)phenyl)(imino)(methyl)-λ^6-sulfanone]: the IC50 is 10 to 100 nM in test [1] and below 10 nM in test [2].

Take `C#CCn1nc(Cl)c2c(N(C)Cc3ccc([S@](C)(=N)=O)cc3)ccnc21` [Compound 9B, (R)-(4-(((3-chloro-1-(prop-2-yn-1-yl)-1H-pyrazolo[3,4-b]pyridin-4-yl)(methyl)amino)methyl)phenyl)(imino)(methyl)-λ^6-sulfanone]: the half-inhibitory concentration (IC50) in test [1] was 10 to 100 nM; in test [2], below 10 nM.

In the case of `C#CCn1nc(Cl)c2c(N(C)Cc3ccc([S@@](C)(=N)=O)cc3)ccnc21` [Compound 9C, (S)-(4-(((3-chloro-1-(prop-2-yn-1-yl)-1H-pyrazolo[3,4-b]pyridin-4-yl)(methyl)amino)methyl)phenyl)(imino)(methyl)-λ^6-sulfanone], the IC50 in test [1] was at least 1000 nM; in test [2] it was below 10 nM.

Regarding `C#CCn1nc(Cl)c2c(NCc3ccc(S(C)(=N)=O)cc3)ccnc21` (stereo not drawn) [Compound 9D, (4-(((3-chloro-1-(prop-2-yn-1-yl)-1H-pyrazolo[3,4-b]pyridin-4-yl)amino)methyl)phenyl)(imino)(methyl)-λ6-sulfanone], the figures for the half-maximal inhibitory concentration (IC50) in test [1] and in test [2] were 10 to 100 nM and below 10 nM, respectively.

On to `CCn1ncc2c(NCc3ccc(S(C)(=N)=O)cc3)ccnc21` (stereo not drawn) [Compound 9E, (4-(((1-ethyl-1H-pyrazolo[3,4-b]pyridin-4-yl)amino)methyl)phenyl)(imino)(methyl)-λ6-sulfanone], for which the concentration for half-maximal inhibition (IC50) in test [1] and in test [2] was at least 1000 nM throughout.

In the case of `CS(=N)(=O)c1ccc(CNc2ccnc3c2c(Cl)nn3CC#N)cc1` (stereo not drawn) [Compound 9F, 2-(3-chloro-4-((4-(S-methylsulfonimidoyl)benzyl)amino)-1H-pyrazolo[3,4-b]pyridin-1-yl)acetonitrile], the IC50 in test [1] was 10 to 100 nM; in test [2], below 10 nM.

With `C[S@](=N)(=O)c1ccc(CNc2ccnc3c2c(Cl)nn3CC#N)cc1` [Compound 9G, (S)-2-(3-chloro-4-((4-(S-methylsulfonimidoyl)benzyl)amino)-1H-pyrazolo[3,4-b]pyridin-1-yl) acetonitrile], the 50% inhibitory concentration (IC50) in test [1] was at least 1000 nM; in test [2] it was 100 to 1000 nM.

Turning to `C[S@@](=N)(=O)c1ccc(CNc2ccnc3c2c(Cl)nn3CC#N)cc1` [Compound 9H, (R)-2-(3-chloro-4-((4-(S-methylsulfonimidoyl)benzyl)amino)-1H-pyrazolo[3,4-b]pyridin-1-yl)acetonitrile], the concentration for half-maximal inhibition (IC50) in test [1] was 10 to 100 nM; in test [2], below 10 nM.

Regarding `CCn1nc(Cl)c2c(NCc3ccc(S(=N)(=O)CCOC)cc3)ccnc21` (stereo not drawn) [Compound 9I, (4-(((3-chloro-1-ethyl-1H-pyrazolo[3,4-b]pyridin-4-yl)amino)methyl)phenyl)(imino)(2-methoxyethyl)-λ6-sulfanone], the IC50 was 100 to 1000 nM in test [1] and below 10 nM in test [2].

Take `CCn1nc(Cl)c2c(NCc3ccc(S(=N)(=O)CC4CC4)cc3)ccnc21` (stereo not drawn) [Compound 9J, (4-(((3-chloro-1-ethyl-1H-pyrazolo[3,4-b]pyridin-4-yl)amino)methyl)phenyl) (cyclopropylmethyl)(imino)-λ^6-sulfanone]: the IC50 in test [1] was 100 to 1000 nM; in test [2], below 10 nM.

Consider `CCn1nc(Cl)c2c(NCc3ccc(S(=N)(=O)CC)cc3)ccnc21` (stereo not drawn) [Compound 9K, (4-(((3-chloro-1-ethyl-1H-pyrazolo[3,4-b]pyridine-4-yl)amino)methyl)phenyl)(ethyl) (imino)-λ^6-sulfanone], for which the IC50 in test [1] was 100 to 1000 nM; in test [2] it was below 10 nM.

Consider `CCn1nc(Cl)c2c(NCc3ccc([S@](C)(=N)=O)cc3)ccnc21` [Compound 9L, (R)-(4-(((3-chloro-1-ethyl-1H-pyrazolo[3,4-b]pyridin-4-yl)amino)methyl)phenyl)(imino) (methyl)-λ^6-sulfanone], for which the concentration for half-maximal inhibition (IC50) in test [1] is 100 to 1000 nM; in test [2] it was below 10 nM.

Turning to `CCn1nc(Cl)c2c(NCc3ccc([S@@](C)(=N)=O)cc3)ccnc21` [Compound 9M, (S)-(4-(((3-chloro-1-ethyl-1H-pyrazolo[3,4-b]pyridin-4-yl)amino)methyl)phenyl)(imino) (methyl)-λ^6-sulfanone], the concentration for half-maximal inhibition (IC50) in test [1] is at least 1000 nM; in test [2], 10 to 100 nM.

In the case of `CCn1nc(Cl)c2c(NCc3ccc([S@](=N)(=O)CCOC)cc3)ccnc21` [Compound 9N, (R)-(4-(((3-chloro-1-ethyl-1H-pyrazolo [3,4-b]pyridine-4-yl)amino)methyl)phenyl)(imino)(2-methoxyethyl)-λ^6-sulfanone], the IC50 in test [1] was at least 1000 nM; in test [2] it was below 10 nM.

With `C#CCn1nc(Cl)c2c(NCc3ccc(S(C)(=O)=NC)cc3)ccnc21` (stereo not drawn) [Compound 10A, (4-(((3-chloro-1-(prop-2-yn-1-yl)-1H-pyrazolo[3,4-b]pyridin-4-yl)amino)methyl)phenyl)(methyl)(methylimino)-λ6-sulfanone], the results for the IC50 in test [1] and in test [2] were at least 1000 nM and 100 to 1000 nM, respectively.

Consider `CN=S(C)(=O)c1ccc(CNc2ccnc3c2c(Cl)nn3CC#N)cc1` (stereo not drawn) [Compound 10D, 2-(3-chloro-4-((4-(N,S-dimethylsulfonimidoyl)benzyl)amino)-1H-pyrazolo[3,4-b]pyridin-1-yl)acetonitrile], for which the IC50 in test [1] was at least 1000 nM; in test [2] it was 100 to 1000 nM.

For `CN[S@](=N)(=O)c1ccc(CNc2ccnc3c2c(Cl)nn3CC#N)cc1` [Compound 10E, (S)-4-(((3-chloro-1-(cyanomethyl)-1H-pyrazolo[3,4-b]pyridin-4-yl)amino)methyl)-N-methylbenzenesulfonimidamide], the figures for the IC50 in test [1] and in test [2] were 100 to 1000 nM and below 10 nM, respectively.

With `CN[S@@](=N)(=O)c1ccc(CNc2ccnc3c2c(Cl)nn3CC#N)cc1` [Compound 10F, (R)-4-(((3-chloro-1-(cyanomethyl)-1H-pyrazolo[3,4-b]pyridin-4-yl)amino)methyl)-N-methylbenzenesulfonimidamide], the half-maximal inhibitory concentration (IC50) in test [1] was at least 1000 nM; in test [2], 10 to 100 nM.

Turning to `C#CCn1nc(Cl)c2c(NCc3ccc(S(=N)(N)=O)cc3)ccnc21` (stereo not drawn) [Compound 11A, 4-(((3-chloro-1-(prop-2-yn-1-yl)-1H-pyrazolo[3,4-b]pyridin-4-yl)amino)methyl)benzenesulfonimidamide], the values for the half-maximal inhibitory concentration (IC50) in test [1] and in test [2] were 10 to 100 nM and below 10 nM, respectively.

`N#CCn1nc(Cl)c2c(NCc3ccc(S(=N)(N)=O)cc3)ccnc21` (stereo not drawn) [Compound 11B, 4-(((3-chloro-1-(cyanomethyl)-1H-pyrazolo[3,4-b]pyridin-4-yl)amino)methyl)benzenesulfonimidamide]: the values for the IC50 in test [1] and in test [2] were 100 to 1000 nM and below 10 nM, respectively.

As for `CCn1nc(Cl)c2c(NCc3ccc(S(=N)(N)=O)cc3)ccnc21` (stereo not drawn) [Compound 11C, 4-(((3-chloro-1-ethyl-1H-pyrazolo[3,4-b]pyridin-4-yl)amino)methyl)benzenesulfonimidamide], the values for the IC50 in test [1] and in test [2] were at least 1000 nM and below 10 nM, respectively.

For the compound `C#CCn1nc(Cl)c2c(NCc3ccc(S(N)(=O)=NC)cc3)ccnc21` (stereo not drawn) [Compound 12A, 4-(((3-chloro-1-(prop-2-yn-1-yl)-1H-pyrazolo[3,4-b]pyridin-4-yl)amino)methyl)-N′-methylbenzenesulfonimidamide], the IC50 is 10 to 100 nM in test [1] and below 10 nM in test [2].

For `CN=S(N)(=O)c1ccc(CNc2ccnc3c2c(Cl)nn3CC#N)cc1` (stereo not drawn) [Compound 12B, 4-(((3-chloro-1-(cyanomethyl)-1H-pyrazolo[3,4-b]pyridin-4-yl)amino)methyl)-N′-methylbenzenesulfonimidamide], the IC50 is 100 to 1000 nM in test [1] and below 10 nM in test [2].

Regarding `CCn1nc(Cl)c2c(NCc3ccc([S@@](N)(=O)=NC)cc3)ccnc21` [Compound 12C, (S)-4-(((3-chloro-1-ethyl-1H-pyrazolo[3,4-b]pyridin-4-yl)amino)methyl)-N′-methyl benzenesulfonimidamide], the IC50 is at least 1000 nM in test [1] and 10 to 100 nM in test [2].
